Experiments:
Test in all cases: OncoPanel cytotoxicity assay
Type in all cases: cell-based
BFTC-905 = conditions: Homo sapiens, 72 hour incubation
Method: (§1) Cells were grown in RPMI 1640, 10% FBS, 2 mM L-alanyl-L-Glutamine, 1 mM Na Pyruvate, or a special medium in a humidified atmosphere of 5% CO2 at 37° C. Cells were seeded into 384-well plates and incubated in a humidified atmosphere of 5% CO2 at 37° C. Test compounds were added 24 hours post cell seeding. At the same time, a time zero, untreated cell plate was generated as a control. After a 72 hour incubation period, cells were fixed and stained with nuclear dye to allow visualization of nuclei.
(§2) Compounds were serially diluted 3.16-fold and assayed over 10 concentrations of inhibitor in a final assay concentration of 0.1% DMSO from the highest test concentration specified in the sample information chapter. Automated fluorescence microscopy was carried out using a GE Healthcare InCell Analyzer 1000, and images were collected with a 4× objective. Twelve bit tiff images were acquired using the InCell Analyzer 1000 3.2 and analyzed with Developer Toolbox 1.6 software.
(§3) Cell proliferation was measured by the signal intensity of the incorporated nuclear dye. The cell proliferation assay output is referred to as the relative cell count. To determine the cell proliferation end point, the cell proliferation data output is transformed to percent of control (POC) using the following formula: […]
(§4) Relative cell count IC50 (IC50) is the test compound's concentration that produces 50% of the cell proliferation inhibitory response or 50% cytotoxicity level. IC50 values were calculated using nonlinear regression to fit data to a sigmoidal 4 point, 4 parameter One-Site dose response model, where: y (fit)=A+[(B−A)/(1+((C/x)̂D))]. Curve-fitting, IC50 calculations and report generation were performed using a custom data reduction engine MathIQ based software (AIM). […] In these cases, the IC50 values were expressed as 40 μM and 10 μM, respectively (Table 2).

A431 = conditions: Homo sapiens, A-431, 72 hour incubation
Method: as §1, §2, §3, §4

U2OS = conditions: Homo sapiens, 72 hour incubation
Method: as §1, §2, §3, §4

SW1417 = conditions: Homo sapiens, 72 hour incubation
Method: as §1, §2, §3, §4

A7 = conditions: Homo sapiens, 72 hour incubation
Method: as §1, §2, §3, §4

MG-63 = conditions: Homo sapiens, 72 hour incubation
Method: as §1, §2, §3, §4

SW1463 = conditions: Homo sapiens, 72 hour incubation
Method: as §1, §2, §3, §4

HEL-92-1-7 = conditions: Homo sapiens, HEL 92.1.7, 72 hour incubation
Method: as §1, §2, §3, §4

SW982 = conditions: Homo sapiens, 72 hour incubation
Method: as §1, §2, §3, §4

U-138MG = conditions: Homo sapiens, U138-MG, 72 hour incubation
Method: as §1, §2, §3, §4

JEG-3 = conditions: Homo sapiens, 72 hour incubation
Method: as §1, §2, §3, §4

T98G = conditions: Homo sapiens, 72 hour incubation
Method: as §1, §2, §3, §4

NCI-H295R = conditions: Homo sapiens, 72 hour incubation
Method: as §1, §2, §3, §4

MDA MB 468 = conditions: Homo sapiens, 72 hour incubation
Method: as §1, §2, §3, §4

Y79 = conditions: Homo sapiens, 72 hour incubation
Method: as §1, §2, §3, §4

SK-BR-3 = conditions: Homo sapiens, 72 hour incubation
Method: as §1, §2, §3, §4

Hs 578T = conditions: Homo sapiens, 72 hour incubation
Method: as §1, §2, §3, §4

Colo 201 = conditions: Homo sapiens, 72 hour incubation
Method: as §1, §2, §3, §4

HS 746T = conditions: Homo sapiens, Hs746T, 72 hour incubation
Method: as §1, §2, §3, §4

SW403 = conditions: Homo sapiens, SW-403, 72 hour incubation
Method: as §1, §2, §3, §4

SKMES1 = conditions: Homo sapiens, SK-MES-1, 72 hour incubation
Method: as §1, §2, §3, §4

DB = conditions: Homo sapiens, 72 hour incubation
Method: as §1, §2, §3, §4

AsPC-1 = conditions: Homo sapiens, ASPC1, 72 hour incubation
Method: as §1, §2, §3, §4

DBTRG-05MG = conditions: Homo sapiens, 72 hour incubation
Method: as §1, §2, §3, §4

SJRH30 = conditions: Homo sapiens, 72 hour incubation
Method: as §1, §2, §3, §4

H4 = conditions: Homo sapiens, 72 hour incubation
Method: as §1, §2, §3, §4

CAMA-1 = conditions: Homo sapiens, 72 hour incubation
Method: as §1, §2, §3, §4

SW1088 = conditions: Homo sapiens, 72 hour incubation
Method: as §1, §2, §3, §4

L-428 = conditions: Homo sapiens, 72 hour incubation
Method: as §1, §2, §3, §4

Cal 27 = conditions: Homo sapiens, 72 hour incubation
Method: as §1, §2, §3, §4

DK-MG = conditions: Homo sapiens, 72 hour incubation
Method: as §1, §2, §3, §4

A172 = conditions: Homo sapiens, A 172, 72 hour incubation
Method: as §1, §2, §3, §4

LS-174T = conditions: Homo sapiens, LS174T, 72 hour incubation
Method: as §1, §2, §3, §4

MC-IXC = conditions: Homo sapiens, 72 hour incubation
Method: as §1, §2, §3, §4

SNU-1 = conditions: Homo sapiens, SNU1, 72 hour incubation
Method: as §1, §2, §3, §4

BT474 = conditions: Homo sapiens, BT-474, 72 hour incubation
Method: as §1, §2, §3, §4

K562 = conditions: Homo sapiens, 72 hour incubation
Method: as §1, §2, §3, §4

RPMI 6666 = conditions: Homo sapiens, 72 hour incubation
Method: as §1, §2, §3, §4

Question: Which results are given for CC[C@@H]1CNC2(CC2)CN1C(=O)[C@@H]1C[C@@H](F)CN1C(=O)C1=C(C(C)C)N2C(=N[C@@](C)(c3ccc(Cl)nc3)[C@H]2c2ccc(Cl)c(F)c2)S1 [Compound A, [(5R,6S)-5-(4-Chloro-3-fluorophenyl)-6-(6-chloropyridin-3-yl)-6-methyl-3-(propan-2-yl)-5,6-dihydroimidazo[2,1-b][1,3]thiazol-2-yl][(2S,4R)-2-{[(6R)-6-ethyl-4,7-diazaspiro[2.5]oct-7-yl]carbonyl}-4-fluoropyrrolidin-1-yl]methanone]?
Answer: IC50 (BFTC-905): > 40 µM; IC50 (A431): > 40 µM; IC50 (U2OS): 1.24 µM; IC50 (SW1417): > 40 µM; IC50 (A7): > 40 µM; IC50 (MG-63): > 40 µM; IC50 (SW1463): > 40 µM; IC50 (HEL-92-1-7): > 40 µM; IC50 (SW982): 0.232 µM; IC50 (U-138MG): > 40 µM; IC50 (JEG-3): 3.62 µM; IC50 (T98G): > 40 µM; IC50 (NCI-H295R): > 40 µM; IC50 (MDA MB 468): 36.2 µM; IC50 (Y79): 1.05 µM; IC50 (SK-BR-3): 27.7 µM; IC50 (Hs 578T): > 40 µM; IC50 (Colo 201): 34.6 µM; IC50 (HS 746T): 38.9 µM; IC50 (SW403): > 40 µM; IC50 (SKMES1): 33.8 µM; IC50 (DB): > 40 µM; IC50 (AsPC-1): > 40 µM; IC50 (DBTRG-05MG): 0.132 µM; IC50 (SJRH30): > 40 µM; IC50 (H4): 0.172 µM; IC50 (CAMA-1): > 40 µM; IC50 (SW1088): > 40 µM; IC50 (L-428): > 40 µM; IC50 (Cal 27): > 40 µM; IC50 (DK-MG): 0.645 µM; IC50 (A172): 0.795 µM; IC50 (LS-174T): 0.497 µM; IC50 (MC-IXC): 22.7 µM; IC50 (SNU-1): 0.412 µM; IC50 (BT474): > 40 µM; IC50 (K562): > 40 µM; IC50 (RPMI 6666): 1.7 µM

Question: CC1(C)CCC2(CC1)N[C@@H](C(=O)N[C@@H]1CC[C@@H](C(N)=O)OC1)[C@H](c1ccnc(Cl)c1F)[C@]21C(=O)Nc2cc(Cl)ccc21 [Compound B, (3′R,4′S,5′R)—N-[(3R,6S)-6-carbamoyltetrahydro-2H-pyran-3-yl]-6″-chloro-4′-(2-chloro-3-fluoropyridin-4-yl)-4,4-dimethyl-2″-oxo-1″,2″-dihydrodispiro[cyclohexane-1,2′-pyrrolidine-3′,3″-indole]-5′-carboxamide] was tested. Which IC50 (BFTC-905) did it give?
Answer: 8.51 µM

Question: What about the IC50 (A431) of the same compound?
Answer: > 10 µM

Question: What about the IC50 (U2OS) of the same compound?
Answer: 0.248 µM

Question: What about the IC50 (SW1417) of the same compound?
Answer: > 10 µM

Question: And the IC50 (A7)?
Answer: 3.59 µM

Question: And the IC50 (MG-63)?
Answer: > 10 µM

Question: What about the IC50 (SW1463) of the same compound?
Answer: > 10 µM

Question: What about the IC50 (HEL-92-1-7) of the same compound?
Answer: > 10 µM

Question: And the IC50 (SW982)?
Answer: 0.0209 µM

Question: What about the IC50 (U-138MG) of the same compound?
Answer: > 10 µM

Question: And the IC50 (JEG-3)?
Answer: 0.249 µM

Question: What about the IC50 (T98G) of the same compound?
Answer: > 10 µM

Question: And the IC50 (NCI-H295R)?
Answer: > 10 µM

Question: And the IC50 (MDA MB 468)?
Answer: 8.12 µM

Question: And the IC50 (Y79)?
Answer: 0.159 µM

Question: What about the IC50 (SK-BR-3) of the same compound?
Answer: > 10 µM

Question: And the IC50 (Hs 578T)?
Answer: > 10 µM

Question: And the IC50 (Colo 201)?
Answer: 7.33 µM

Question: What about the IC50 (HS 746T) of the same compound?
Answer: 5.85 µM

Question: And the IC50 (SW403)?
Answer: > 10 µM

Question: What about the IC50 (SKMES1) of the same compound?
Answer: 8.73 µM

Question: What about the IC50 (DB) of the same compound?
Answer: 5.98 µM

Question: And the IC50 (AsPC-1)?
Answer: > 10 µM

Question: What about the IC50 (DBTRG-05MG) of the same compound?
Answer: 0.0846 µM

Question: What about the IC50 (SJRH30) of the same compound?
Answer: 7.24 µM

Question: And the IC50 (H4)?
Answer: 0.024 µM

Question: And the IC50 (CAMA-1)?
Answer: > 10 µM

Question: And the IC50 (SW1088)?
Answer: 9.02 µM

Question: And the IC50 (L-428)?
Answer: > 10 µM

Question: What about the IC50 (Cal 27) of the same compound?
Answer: > 10 µM

Question: And the IC50 (DK-MG)?
Answer: 0.0553 µM

Question: What about the IC50 (A172) of the same compound?
Answer: 0.0689 µM

Question: What about the IC50 (LS-174T) of the same compound?
Answer: 0.0615 µM

Question: And the IC50 (MC-IXC)?
Answer: 8.62 µM

Question: What about the IC50 (SNU-1) of the same compound?
Answer: 0.135 µM

Question: And the IC50 (BT474)?
Answer: > 10 µM

Question: What about the IC50 (K562) of the same compound?
Answer: > 10 µM

Question: What about the IC50 (RPMI 6666) of the same compound?
Answer: 0.0793 µM

Reference: patent US20160333419A1, “GENE SIGNATURES ASSOCIATED WITH SENSITIVITY TO MDM2 INHIBITORS” (DAIICHI SANKYO COMPANY, LIMITED, priority 2014, published 2016)
